From US20260184702A1, “SYNTHESIS, PHARMACOLOGY AND USE OF NEW WATER-SOLUBLE AND SELECTIVE FMS-LIKE TYROSINE KINASE3 (FLT3) INHIBITORS” (Universität Regensburg, priority 2022, published 2026)
Converted amounts (≈) assume the structure as drawn. Where two headings read alike, the source gives them in different places.

Tests used:
[1] = Solubility test by UV-Vis spectroscopy of saturated solutions; assay type: physicochemical; settings: saturated solution; for solubility: thermodynamic from solid
Protocol: All UV-Vis measurements were carried out with an Agilent Cary 60 UV-Vis 2.00 between 800-200 nm. The absorbance was measured with a scan rate of 300.0 nm/min, a data interval of 0.50 nm and an UV-Vis Average Time of 0.10 s. For all measurements a cuvette with 10 mm light path was used. A calibration curve was plotted from several different concentrations and the solubility of the respective compound was determined by measuring the absorbance of a diluted saturated solution. As a blank curve a mixture of ultrapure water and ethanol in a ratio of 1:1 or 5:95 was recorded. For the calibration curve a 100 μM or a 10 μM solution of the compound in an ultrapure water:ethanol (1:1) or (5:95)-mixture was prepared and diluted to obtain at least 6 concentrations. […] The supernatant was taken using a syringe and filtered through a syringe filter (RC Membrane). The saturated solution was diluted with ultrapure water and ethanol to obtain an appropriate concentration in a water:ethanol (1:1) or (5:95)-mixture. The long wave absorbance maximum was used for determination of the solubility (mean values, determination in triplicate). […] By plotting the concentration of the solution against the absorbance values at the previously determined wavelength maximum a calibration curve was obtained (FIG. 1B).

human FLT3-ITD = target: T1, human FLT3-ITD (Homo sapiens, UniProt P36888); assay: Enzymatic kinase assay FLT3 (ITD), 10-dose IC50 mode (Reaction Biology); assay type: biochemical
T1 sequence (P36888 1-993): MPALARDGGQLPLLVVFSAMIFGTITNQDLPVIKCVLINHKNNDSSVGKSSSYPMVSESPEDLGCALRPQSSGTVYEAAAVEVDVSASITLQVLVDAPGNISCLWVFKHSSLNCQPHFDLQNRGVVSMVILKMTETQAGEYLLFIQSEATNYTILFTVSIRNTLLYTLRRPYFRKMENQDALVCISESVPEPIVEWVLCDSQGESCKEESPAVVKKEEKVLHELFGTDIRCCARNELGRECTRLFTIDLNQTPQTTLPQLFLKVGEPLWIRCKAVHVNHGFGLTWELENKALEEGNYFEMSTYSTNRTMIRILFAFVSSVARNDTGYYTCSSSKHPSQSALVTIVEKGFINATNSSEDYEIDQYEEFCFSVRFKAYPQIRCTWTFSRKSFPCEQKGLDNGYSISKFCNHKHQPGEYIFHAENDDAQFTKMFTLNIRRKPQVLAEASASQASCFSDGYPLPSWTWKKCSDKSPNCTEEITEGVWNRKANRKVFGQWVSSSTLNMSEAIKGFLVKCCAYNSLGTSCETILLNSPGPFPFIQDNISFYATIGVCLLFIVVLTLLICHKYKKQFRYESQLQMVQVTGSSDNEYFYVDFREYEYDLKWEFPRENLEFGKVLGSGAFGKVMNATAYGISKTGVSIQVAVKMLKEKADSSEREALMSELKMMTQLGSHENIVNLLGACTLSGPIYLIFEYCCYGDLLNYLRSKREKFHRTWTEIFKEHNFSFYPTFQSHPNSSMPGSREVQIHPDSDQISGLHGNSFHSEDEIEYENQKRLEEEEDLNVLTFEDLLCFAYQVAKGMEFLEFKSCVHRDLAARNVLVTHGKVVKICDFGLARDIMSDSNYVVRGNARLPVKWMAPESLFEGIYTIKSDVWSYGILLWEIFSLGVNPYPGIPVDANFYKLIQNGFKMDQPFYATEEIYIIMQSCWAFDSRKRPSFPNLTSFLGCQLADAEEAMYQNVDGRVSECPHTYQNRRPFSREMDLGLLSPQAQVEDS

[2] = target: T2, recombinant human FLT3 (D835Y) (Homo sapiens, UniProt P36888, D835Y); assay: Enzymatic kinase assay FLT3 (D835Y), 10-dose IC50 mode (Reaction Biology); assay type: biochemical; settings: 10 μM ATP
T2 construct: purchased Reaction Biology
T2 sequence (P36888 27-993 D835Y): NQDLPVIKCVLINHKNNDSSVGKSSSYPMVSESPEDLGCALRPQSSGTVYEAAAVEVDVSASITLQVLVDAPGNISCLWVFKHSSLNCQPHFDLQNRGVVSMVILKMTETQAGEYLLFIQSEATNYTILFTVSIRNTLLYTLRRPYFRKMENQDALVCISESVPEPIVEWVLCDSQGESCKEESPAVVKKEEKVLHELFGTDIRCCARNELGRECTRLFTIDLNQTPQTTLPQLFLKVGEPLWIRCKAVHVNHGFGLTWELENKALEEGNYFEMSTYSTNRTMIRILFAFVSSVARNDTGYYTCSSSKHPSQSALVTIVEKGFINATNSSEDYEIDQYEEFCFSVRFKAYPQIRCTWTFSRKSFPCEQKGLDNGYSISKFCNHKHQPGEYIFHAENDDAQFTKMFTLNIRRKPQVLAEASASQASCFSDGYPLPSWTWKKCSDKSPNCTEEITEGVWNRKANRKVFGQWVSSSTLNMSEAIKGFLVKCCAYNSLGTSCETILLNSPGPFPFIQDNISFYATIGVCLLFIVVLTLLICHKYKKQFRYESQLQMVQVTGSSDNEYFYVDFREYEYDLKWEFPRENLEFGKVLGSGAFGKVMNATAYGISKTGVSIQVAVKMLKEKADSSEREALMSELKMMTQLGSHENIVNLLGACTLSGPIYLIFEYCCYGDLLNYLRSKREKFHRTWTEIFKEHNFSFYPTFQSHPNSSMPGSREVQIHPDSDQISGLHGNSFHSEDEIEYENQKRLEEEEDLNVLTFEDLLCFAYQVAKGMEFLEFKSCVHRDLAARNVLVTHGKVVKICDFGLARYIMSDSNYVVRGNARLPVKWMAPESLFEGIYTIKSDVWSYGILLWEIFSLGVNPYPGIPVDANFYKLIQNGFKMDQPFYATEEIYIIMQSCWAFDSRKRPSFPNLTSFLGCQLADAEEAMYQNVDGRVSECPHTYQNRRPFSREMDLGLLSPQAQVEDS

[3] = Solubility test by UV-Vis spectroscopy of saturated solutions; assay type: physicochemical; settings: solvent DMSO
[4] = tested on: MV4-11 cells (FLT3-ITD positive); assay: Cell Titer-Glo proliferation assay with MV4-11 cells; assay type: cell-based; settings: Homo sapiens, MV4-11, 72 h
Protocol: MV4-11 cells are human acute myeloid leukemia cell lines that carry a FLT3-ITD mutation (American Type Culture Collection, ATCC, Manassas, VA, United States). Cells were cultured in IMDM medium plus 100 μg/mL penicillin, 100 μg/mL streptomycin and 10% FBS. All cells were kept at 37° C., 5% CO2.
Cell proliferation was assessed with Cell Titer-Glo® Viability Assay (Promega; Madison, WI, United States) according to the manufacturer's instructions.

[5] = ethanol, organic solvent or mixture, ethanol, read-out: Solubility Ethanol
[6] = ultrapure water, water, ultrapure water, read-out: Solubility Water
[7] = 10 μM ATP; read-out: IC50 FLT3 (ITD)

Structure (SMILES) | solubility [1, 5] | solubility [1, 6] | IC50 (human FLT3-ITD; [7]) | IC50 ([2]; read-out: IC50 FLT3 (D835Y)) | Solubility DMSO [3] | IC50 ([4]; read-out: IC50 MV4-11 cells) | Solubility Ethanol ([1]; ethanol) | Solubility Water ([1]; ultrapure water) | IC50 (human FLT3-ITD; read-out: IC50 FLT3 (ITD); 10 μM ATP; bis(2,2,2-trifluoroacetate)) | IC50 ([2]; IC50 FLT3 (D835Y) [nM]) | IC50 ([4]; read-out: IC50 MV4-11 cells [nM]) | IC50 (human FLT3-ITD; read-out: IC50 FLT3 (ITD); 10 μM ATP)
CC(C)(C)c1cc(NC(=O)Nc2ccc3oc(C(=O)c4cc5c(CN6CCOCC6)c(OC(=O)N6CCC(N7CCCCC7)CC6)ccc5[nH]4)cc3c2)no1 [Compound 38b, 2-(5-(3-(5-(tert-Butyl)isoxazol-3-yl)ureido)benzofuran-2-carbonyl)-4-(morpholinomethyl)-1H-indol-5-yl[1,4′-bipiperidine]-1′-carboxylate bis(2,2,2-trifluoroacetate)] |  |  |  |  |  |  |  |  | 1.29 nM | 6.63 nM | 0.38 nM | 
CN1CCN(Cc2c(OC(=O)N3CCC(N4CCCCC4)CC3)ccc3[nH]c(C(=O)c4cc5cc(NC(=O)Nc6cc(C(C)(C)C)on6)ccc5o4)cc23)CC1 [Compound 41a, 2-(5-(3-(5-(tert-Butyl)isoxazol-3-yl)ureido)benzofuran-2-carbonyl)-4-((4-methylpiperazin-1-yl)methyl)-1H-indol-5-yl [1,4′-bipiperidine]-1′-carboxylate] |  |  |  |  |  |  |  |  |  | 2.46 nM |  | 0.7 nM
C/C=C/C(=O)N1CCN(Cc2c(O)ccc3[nH]c(C(=O)c4cc5cc(NC(=O)Nc6cc(C(C)(C)C)on6)ccc5o4)cc23)CC1 [Compound 57a, 1-(2-(4-((4-(But-2-enoyl)piperazin-1-yl)methyl)-5-hydroxy-1H-indole-2-carbonyl)benzofuran-5-yl)-3-(5-(tert-butyl)isoxazole-3-yl)urea] |  |  | 4.36 nM |  |  | 0.24 nM |  |  |  |  |  | 
CCN1CCN(Cc2c(O)ccc3[nH]c(C(=O)c4cc5cc(NC(=O)Nc6cc(C(C)(C)C)on6)ccc5o4)cc23)CC1 [Compound 69a, 1-(5-(tert-Butyl)isoxazol-3-yl)-3-(2-(4-((4-ethylpiperazin-1-yl)methyl)-5-hydroxy-1H-indole-2-carbonyl)benzofuran-5-yl)urea] |  | < 100 µg/mL | 1.28 nM | 4.23 nM | Soluble | 0.13 nM | 970 µg/mL (≈ 1660 µM) |  |  |  |  | 

Now from value to molecule, other results behind:

solubility [1, 5] | solubility [1, 6] | IC50 (human FLT3-ITD; [7]) | IC50 ([2]; read-out: IC50 FLT3 (D835Y)) | Solubility DMSO [3] | IC50 ([4]; read-out: IC50 MV4-11 cells) | Solubility Ethanol ([1]; ethanol) | Solubility Water ([1]; ultrapure water) | Structure (SMILES) | IC50 (human FLT3-ITD; read-out: IC50 FLT3 (ITD); 10 μM ATP; bis(2,2,2-trifluoroacetate)) | IC50 ([2]; IC50 FLT3 (D835Y) [nM]) | IC50 ([4]; read-out: IC50 MV4-11 cells [nM]) | IC50 (human FLT3-ITD; read-out: IC50 FLT3 (ITD); 10 μM ATP)
4670 µg/mL (≈ 8180 µM) | < 100 µg/mL | 0.81 nM | 3.83 nM | Soluble |  |  |  | CN1CCN(Cc2c(O)ccc3[nH]c(C(=O)c4cc5cc(NC(=O)Nc6cc(C(C)(C)C)on6)ccc5o4)cc23)CC1 [Compound 33a, 1-(5-(tert-Butyl)isoxazol-3-yl)-3-(2-(5-hydroxy-4-((4-methylpiperazin-1-yl)methyl)-1H-indole-2-carbonyl)benzofuran-5-yl)urea] |  |  |  | 
1140 µg/mL (≈ 2050 µM) | < 100 µg/mL | 3.36 nM | 9.55 nM | Soluble | 0.42 nM |  |  | CC(C)(C)c1cc(NC(=O)Nc2ccc3oc(C(=O)c4cc5c(CN6CCNCC6)c(O)ccc5[nH]4)cc3c2)no1 [Compound 55b, 1-(5-(tert-Butyl)isoxazol-3-yl)-3-(2-(5-hydroxy-4-(piperazin-1-ylmethyl)-1H-indole-2-carbonyl)benzofuran-5-yl)urea bis(2,2,2-trifluoroacetate)] |  |  |  | 
2540 µg/mL (≈ 4160 µM) | 220 µg/mL (≈ 360 µM) | 1.47 nM | 10.8 nM | Soluble | 0.17 nM |  |  | C=CC(=O)N1CCN(Cc2c(O)ccc3[nH]c(C(=O)c4cc5cc(NC(=O)Nc6cc(C(C)(C)C)on6)ccc5o4)cc23)CC1 [Compound 56b, 1-(2-(4-((4-Acryloylpiperazin-1-yl)methyl)-5-hydroxy-1H-indole-2-carbonyl)benzofuran-5-yl)-3-(5-(tert-butyl)isoxazole-3-yl)urea 2,2,2-trifluoroacetate] |  |  |  | 
920 µg/mL (≈ 1540 µM) |  | 1.98 nM | 2.6 nM | Soluble | 0.31 nM |  | <100 µg/mL | CC(C)N1CCN(Cc2c(O)ccc3[nH]c(C(=O)c4cc5cc(NC(=O)Nc6cc(C(C)(C)C)on6)ccc5o4)cc23)CC1 [Compound 70a, 1-(5-(tert-Butyl)isoxazol-3-yl)-3-(2-(5-hydroxy-4-((4-isopropylpiperazin-1-yl)methyl)-1H-indole-2-carbonyl)benzofuran-5-yl)urea] |  |  |  | 
